# Measured values from US20170209499A1, “Propolis and Extracts Thereof for the Treatment of Skin Cancers and Improvement of Skin Health” (Manuka Health New Zealand Limited, priority 2014, published 2017).
# System: human epidermoid cancer cell line A-431
# Test: MTT cell proliferation assay, human epidermoid (squamous) carcinoma cell line A-431
# Assay type: cell-based
# Conditions: for Mean OD: MTT Optical Density at 570 nm
# Description: The three human skin cancer cell lines were: • 1) Human Melanoma cell line (A-2058). • 2) Human Epidermoid (Squamous) Carcinoma cell line (A-431). • 3) Human Basal Cell Carcinoma cell line (TE 354.T).
# The cell lines were revived from cryostorage and cultured in the presence of the test and reference samples. An MIT assay was then performed on the cultures to determine the effect of the samples on the cell viability and proliferation. The percentage standard error of the mean was assessed and extreme outliers were removed if the SEM%>15. Preliminary statistical significance was assessed with an independent Student t-test at α<0.05 (with and without outliers). The methodology was based on the procedures reported by: • Ahn, N G, Campbell J S (1993). […] Proc Natl Acad Sci. 90: 5143-5147. • Galan-Cobo, A et al (2014). Functional inhibition of aquaporin-3 with a gold-based compound induces blockage of cell proliferation. J Cellul. Physiol. 229: 1787-1801. • Roomi, M W, Kalinovsky, J et al (2013) Effect of a nutrient mixture on matrix metalloproteinase-9 dimers in various human cancer cell lines. Inter 3 Oncol. 44: 936-942. • Huang, H C, Lin, M K et al (2013). Cardenolides and bufadienolide glycosides from Kalanchoe tubiflora and evaluation of cytotoxicity. Planta Medica. 79: 1362-1369. • Tilli, C M L J, Stavast-Kooy, A J W et al (2003). The garlic-derived organosulfur component ajoene decreases basal cell carcinoma tumor size by inducing apoptosis. Arch Dermatol Res. 295: 117-123.
# • 1. Human melanoma cell line (A-2058, ATCC CRL11147) was obtained from ATCC, Bethesda, Md., USA. • 2. Human squamous (epidermoid) carcinoma cell line (A-431, ATCC CRL1555) was obtained from ATCC, Bethesda, Md. USA. • 3. Human basal cell carcinoma cell line (TE 354.T, ATCC CRL7762) was obtained from ATCC, Bethesda, Md., USA. • 4. Dulbecco's Modified Eagle's Medium (DMEM) was obtained from GIBCO (12100-038). 10% Foetal Bovine Serum (FBS), 100 U/ml Penicillin and […] Streptomycin were added before use. • 5. Penicillin-streptomycin solution, stored at −20° C. consisting of 10000 units/ml penicillin and 10 mg/ml streptomycin in 0.9% NaCl was obtained from Sigma (#P-0781). • 6. Trypsin-EDTA solution consisting of 0.25% Trypsin/EDTA was obtained from Invitrogen (#15400054). • 7. Phosphate buffered saline (PBS) was prepared in-house. • 8. Hanks Balanced Salt Solution (HBSS), stored at 4° C. was obtained from GIBCO (#14185-052). • 9. Foetal Bovine Serum (FBS) stored at −20° C. was obtained from GIBCO (#10091-148). • 10. MTT Reagent, 100 mg/vial, was obtained from Sigma (M-2128) and then dissolved in PBS at 10 mg/ml and stored at −20° C. A 5 mg/ml MTT solution was prepared in PBS and stored at 4° C. as the working solution. • 11. MU lysis buffer: 10% sodium dodecyl sulphate (SDS)/45% Dimethyl Formamide was prepared by dissolving 20 g SDS in 100 ml of double-distilled water (DDW), and then adding 90 ml of Dimethyl Formamide to the solution. The pH was adjusted to 4.7 by glacial acetic acid, and DDW added up to a final volume of 200 ml. • 12. 5-Fluorouracil (5-FU) was supplied by Sigma (F-6627). Three working solutions were prepared at 19.5 μg/ml. 6.5 μg/ml and 1.95 μg/ml dissolved in 15% Ethanol/HBSS. Final concentrations were 1.95 μg/ml (15 μM), 0.65 μg/ml (5 μM) and 0.195 μg/ml (1.5 μM).
# • 1. Each of the cell lines was revived from cryostorage. • 2. Following initial propagation using the media described above (Characterisation of Test System, and Medium Preparation), the cell culture was subcultured using trypsin-EDTA. The media was removed and 5ml of the trypsin-EDTA solution added and incubated at 37° C. for 5 min or until all the cells had detached. The trypsin was neutralised by the addition of an equal volume of the relevant medium and centrifugation of the suspension at 300 g (1200 rpm) for 5 min at 4° C. • 3. […]
smiles,measurement,setting,value
"O=c1[nH]cc(F)c(=O)[nH]1 [5-fluorouracil, reference compound]",% inhibition,"A-431, 0.195 μg/ml, 24 hr incubation, vs cells only",weak and statistically insignificant inhibitor
same,Mean OD,"A-431, 0.195 μg/ml",0.2364
same,% inhibition,"A-431, 0.65 μg/ml, 24 hr incubation, vs cells only",weak and statistically insignificant inhibitor
same,Mean OD,"A-431, 0.65 μg/ml",0.2416
same,% inhibition,"A-431, 1.95 μg/ml, 24 hr incubation, vs cells only",weak and statistically insignificant inhibitor
same,Mean OD,"A-431, 1.95 μg/ml",0.2561
same,inhibition at 0.195 µg/mL,"Homo sapiens, A-431, 0.195 μg/ml, 24 hr incubation, vs cells only",9.79%
same,inhibition at 0.65 µg/mL,"Homo sapiens, A-431, 0.65 μg/ml, 24 hr incubation, vs cells only",7.8%
same,inhibition at 1.95 µg/mL,"Homo sapiens, A-431, 1.95 μg/ml, 24 hr incubation, vs cells only",2.26%
